Results on 14 molecules are retold here after patent publication US10538555B2, “Macrocyclic inhibitors of the PD-1/PD-L1 and CD80(B7-1)/PD-L1 protein/protein interactions” (BRISTOL-MYERS SQUIBB COMPANY, priority 2014, dated 2020).

Molecules are shown by their SMILES. *1 amine or outer side, *2 acyl side, *3 side chain or, on linkers, in order; H or OH if unused. Where a SMILES comes first, the peptide text is derived from it. Bridges are numbered along the chain shown (N, C = ends). [ ]: non-standard residue; d: D form. ξ: configuration not given here. Trp(1-CH2COOH) = N[C@@H](Cc1cn(CC(=O)O)c2ccccc12)C(=O)O; Lac(3-(indol-3-yl)) = O=C(O)[C@@H](O)Cc1c[nH]c2ccccc12; Trp(βS-Me) = C[C@@H](c1c[nH]c2ccccc12)[C@H](N)C(=O)O; Phe(3,4,5-F3) = N[C@@H](Cc1cc(F)c(F)c(F)c1)C(=O)O; Phe(4-F) = N[C@@H](Cc1ccc(F)cc1)C(=O)O; d(cisHyp) = O=C(O)[C@H]1C[C@@H](O)CN1; Bta = N[C@@H](Cc1csc2ccccc12)C(=O)O; NMeY = CN[C@@H](Cc1ccc(O)cc1)C(=O)O; Hyp = O=C(O)[C@@H]1C[C@@H](O)CN1; NMeF = CN[C@@H](Cc1ccccc1)C(=O)O; X1 = O=C([C@H]1COCCN1[*:1])[*:2]; NMeL = CN[C@@H](CC(C)C)C(=O)O; Thr(3ξ) = CC(O)[C@H](N)C(=O)O; NMeNle = CCCC[C@H](NC)C(=O)O; dNle = CCCC[C@@H](N)C(=O)O; Pip = O=C(O)[C@@H]1CCCCN1; dPip = O=C(O)[C@H]1CCCCN1; hSer = N[C@@H](CCO)C(=O)O; NMeA = CN[C@@H](C)C(=O)O; Orn = NCCC[C@H](N)C(=O)O; Dab = NCC[C@H](N)C(=O)O; Dap = NC[C@H](N)C(=O)O; ξC = NC(CS)C(=O)O

The target in one assay is T1, Human PD-L1/PD-1 (Homo sapiens, UniProt Q9NZQ7).
T1 construct: TVMV protease cleavage site (C); made in house; host or cells: HEK293T cells
T1 sequence (Q9NZQ7 with tags, fused parts or gaps): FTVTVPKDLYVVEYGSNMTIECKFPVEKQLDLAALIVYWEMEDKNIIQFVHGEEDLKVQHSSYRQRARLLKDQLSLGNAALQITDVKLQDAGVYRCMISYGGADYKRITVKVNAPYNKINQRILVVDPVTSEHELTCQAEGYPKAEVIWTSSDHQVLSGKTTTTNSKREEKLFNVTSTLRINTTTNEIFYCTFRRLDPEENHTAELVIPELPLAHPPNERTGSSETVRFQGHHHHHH
As to the kind of experiment: HTRF Human PD-L1/PD-1 binding assay (PD-1-Ig/PD-L1-His). To be noted: PD-L1-His 10 nM, PD-1-Ig 20 nM; class symbol; read-out: HTRF Human PD-L1/PD-1 Binding Assay IC50 Range. In a few lines: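 Soluble HEK293T-expressed proteins: hPD-L1-His 10 nM, hPD-1-Ig 20 nM final. Cpd + PD-L1 15 min, + PD-1 15 min, + Eu anti-Ig 1 nM/APC anti-His 20 nM 30 min. Buffer dPBS, 0.1% BSA, 0.05% Tween-20. TR-FRET 665/620.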
A general note: In TR-FRET formats the signal depends on donor and acceptor labels being close together.
Turning to `CCCC[C@H]1C(=O)N2C[C@H](O)C[C@@H]2C(=O)N[C@@H](CC(=O)O)C(=O)N[C@@H](C(C)C)C(=O)N(C)[C@@H](Cc2ccccc2)C(=O)N[C@@H](CC(=O)O)C(=O)N2C[C@H](O)C[C@@H]2C(=O)N[C@@H](Cc2c[nH]c3ccccc23)C(=O)N[C@@H](Cc2ccc(O)cc2)C(=O)N[C@@H](CCC(N)=O)C(=O)N[C@H](C(=O)NCC(N)=O)CSCC(=O)N[C@@H](Cc2cc(F)c(F)c(F)c2)C(=O)N(C)[C@@H](Cc2ccccc2)C(=O)N1C` [Example 9351] ({CH2CO}-[Phe(3,4,5-F3)][NMeF][NMeNle][d(cisHyp)]DV[NMeF]D[d(cisHyp)]WYQCG-NH2; thioether N-13), the IC50 was 10 to 99.9 nM.
On to `CCCC[C@H]1C(=O)N(C)[C@@H](CCCC)C(=O)N[C@@H](CC(C)C)C(=O)N[C@H](C(=O)NCC(N)=O)CSCC(=O)N[C@@H](Cc2ccc(O)cc2)C(=O)N(C)[C@@H](C)C(=O)N[C@@H](CC(N)=O)C(=O)N2CCC[C@H]2C(=O)N[C@@H](Cc2c[nH]cn2)C(=O)N[C@@H](CCC(=O)O)C(=O)N2C[C@H](O)C[C@H]2C(=O)N[C@@H]([C@@H](C)c2c[nH]c3ccccc23)C(=O)N[C@@H](CCN)C(=O)N[C@@H](Cc2c[nH]c3ccccc23)C(=O)N1C` [Example 10555] ({CH2CO}-Y[NMeA]NPHE[Hyp][Trp(βS-Me)][Dab]W[NMeNle][NMeNle]LCG-NH2; thioether N-14), for which the IC50 was in the range of 1 to 9.9 nM.
Regarding `CCCC[C@H]1C(=O)N(C)[C@@H](CCCC)C(=O)N[C@@H](CCCNC(=N)N)C(=O)N[C@H](C(=O)NCC(N)=O)CSCC(=O)N[C@@H](Cc2ccc(O)cc2)C(=O)N(C)[C@@H](C)C(=O)N[C@@H](CC(N)=O)C(=O)N2CCC[C@H]2C(=O)N[C@@H](CC(N)=O)C(=O)N[C@@H](CC(C)C)C(=O)N2C[C@H](O)C[C@H]2C(=O)N[C@@H]([C@@H](C)c2c[nH]c3ccccc23)C(=O)N[C@@H](CO)C(=O)N[C@@H](Cc2c[nH]c3ccccc23)C(=O)N1C` [Example 10534] ({CH2CO}-Y[NMeA]NPNL[Hyp][Trp(βS-Me)]SW[NMeNle][NMeNle]RCG-NH2; thioether N-14), the IC50 is 1 to 9.9 nM.
For `CCCC[C@H]1C(=O)N(C)[C@@H](CCCC)C(=O)N[C@@H](C)C(=O)N[C@H](C(=O)NCC(N)=O)CSCC(=O)N[C@@H](Cc2ccc(O)cc2)C(=O)N2CCCC[C@H]2C(=O)N[C@@H](CC(=O)O)C(=O)N2CCC[C@H]2C(=O)N[C@@H](Cc2cnc[nH]2)C(=O)N[C@@H](CCC(N)=O)C(=O)N2C[C@H](O)C[C@H]2C(=O)N[C@@H](Cc2c[nH]c3ccccc23)C(=O)N[C@@H](CO)C(=O)N[C@@H](Cc2csc3ccccc23)C(=O)N1C` [Example 1509] ({CH2CO}-Y[Pip]DPHQ[Hyp]WS[Bta][NMeNle][NMeNle]ACG-NH2; thioether N-14), the IC50 fell in the range of 10 to 99.9 nM.
Take `CCCC[C@H]1C(=O)N2CCC[C@@H]2C(=O)N[C@@H](CC(=O)O)C(=O)N[C@@H](C(C)C)C(=O)N(C)[C@@H](CC(C)C)C(=O)N[C@@H](CCC(N)=O)C(=O)N2CCCC[C@@H]2C(=O)N[C@@H](Cc2c[nH]c3ccccc23)C(=O)N[C@@H](Cc2ccc(O)cc2)C(=O)N[C@@H](CC(C)C)C(=O)N[C@H](C(=O)NCC(N)=O)CSCC(=O)N[C@@H](Cc2ccc(F)cc2)C(=O)N(C)[C@@H](Cc2ccccc2)C(=O)N1C` [Example 9254] ({CH2CO}-[Phe(4-F)][NMeF][NMeNle][dP]DV[NMeL]Q[dPip]WYLCG-NH2; thioether N-13): the IC50 was 1000 to 10000 nM.
For the molecule `CCCC[C@H]1NC(=O)[C@H](Cc2csc3ccccc23)NC(=O)[C@H](CO)NC(=O)[C@H](Cc2c[nH]c3ccccc23)OC(=O)[C@@H]2CCCN2C(=O)[C@H](CC(C)C)NC(=O)[C@H](Cc2cnc[nH]2)NC(=O)[C@@H]2CCCN2C(=O)[C@H](CC(N)=O)NC(=O)[C@H](C)N(C)C(=O)[C@H](Cc2ccc(O)cc2)NC(=O)CSCC(C(=O)NCC(N)=O)NC(=O)[C@H](CCCNC(=N)N)NC(=O)[C@H](CCCC)N(C)C1=O` (some centres unmarked) [Example 10122] ({CH2CO}-Y[NMeA]NPHLP[Lac(3-(indol-3-yl))]S[Bta][dNle][NMeNle]R[ξC]G-NH2; thioether N-14), the IC50 is 1000 to 10000 nM.
Consider `CCCC[C@H]1C(=O)N(C)[C@@H](CCCC)C(=O)N[C@@H](CCCNC(=N)N)C(=O)N[C@H](C(=O)NCC(N)=O)CSCC(=O)N[C@@H](Cc2ccc(O)cc2)C(=O)N(C)[C@@H](C)C(=O)N[C@@H](CC(N)=O)C(=O)N2CCC[C@H]2C(=O)N[C@@H](Cc2cnc[nH]2)C(=O)N[C@@H](CC(C)C)C(=O)N2C[C@H](O)C[C@H]2C(=O)N[C@@H](Cc2c[nH]c3ccccc23)C(=O)N[C@@H](C(C)O)C(=O)N[C@@H](Cc2c[nH]c3ccccc23)C(=O)N1C` (some centres unmarked) [Example 7075] ({CH2CO}-Y[NMeA]NPHL[Hyp]W[Thr(3ξ)]W[NMeNle][NMeNle]RCG-NH2; thioether N-14), for which the IC50 was 1 to 9.9 nM.
Take `CCCC[C@H]1C(=O)N(C)[C@@H](CCCC)C(=O)N[C@@H](CCC(=O)O)C(=O)N[C@H](C(=O)NCC(N)=O)CSCC(=O)N[C@@H](Cc2ccc(O)cc2)C(=O)N(C)[C@@H](C)C(=O)N[C@@H](CC(=O)O)C(=O)N2CCC[C@H]2C(=O)N[C@@H](CO)C(=O)N[C@@H](CC(C)C)C(=O)N2C[C@H](O)C[C@H]2C(=O)N[C@@H](Cc2c[nH]c3ccccc23)C(=O)N[C@@H](CCN)C(=O)N[C@@H](Cc2cn(CC(=O)O)c3ccccc23)C(=O)N1C` [Example 6135] ({CH2CO}-Y[NMeA]DPSL[Hyp]W[Dab][Trp(1-CH2COOH)][NMeNle][NMeNle]ECG-NH2; thioether N-14): the IC50 was 1 to 9.9 nM.
As for `CCCC[C@H]1C(=O)N(C)[C@@H](CCCC)C(=O)N[C@@H](CCC(=O)O)C(=O)NC(C(=O)NCC(N)=O)CSCC(=O)N[C@@H](Cc2ccc(O)cc2)C(=O)N(C)[C@@H](C)C(=O)N[C@@H](CC(N)=O)C(=O)N2CCC[C@H]2C(=O)N[C@@H](Cc2c[nH]cn2)C(=O)N[C@@H](CC(N)=O)C(=O)N2C[C@H](O)C[C@H]2C(=O)N[C@@H](Cc2c[nH]c3ccccc23)C(=O)N[C@@H](CN)C(=O)N[C@@H](Cc2c[nH]c3ccccc23)C(=O)N1C` (some centres unmarked) [Example 9179] ({CH2CO}-Y[NMeA]NPHN[Hyp]W[Dap]W[NMeNle][NMeNle]E[ξC]G-NH2; thioether N-14), the IC50 lay in the range of 100 to 990 nM.
Same read-out and setting: next, `CCCC[C@H]1C(=O)N2CCOC[C@@H]2C(=O)N[C@@H](CC(=O)O)C(=O)N[C@@H](C(C)C)C(=O)N(C)[C@@H](Cc2ccccc2)C(=O)N[C@@H](CCC(=O)O)C(=O)N2CCOC[C@@H]2C(=O)N[C@@H](Cc2c[nH]c3ccccc23)C(=O)N[C@@H](Cc2ccc(O)cc2)C(=O)N[C@@H](CCCN)C(=O)N[C@H](C(=O)NCC(N)=O)CSCC(=O)N[C@@H](Cc2cc(F)c(F)c(F)c2)C(=O)N(C)[C@@H](Cc2ccccc2)C(=O)N1C` [Example 9282] ({CH2CO}-[Phe(3,4,5-F3)][NMeF][NMeNle][X1]DV[NMeF]E[X1]WY[Orn]CG-NH2; thioether N-13): 10 to 99.9 nM; `CCCC[C@H]1C(=O)N2CCC[C@@H]2C(=O)N[C@@H](CC(=O)O)C(=O)N[C@@H](C(C)C)C(=O)N(C)[C@@H](Cc2ccccc2)C(=O)N[C@@H](CCC(=O)O)C(=O)N2C[C@H](O)C[C@@H]2C(=O)N[C@@H](Cc2c[nH]c3ccccc23)C(=O)N[C@@H](Cc2ccc(O)cc2)C(=O)N[C@@H](CC(C)C)C(=O)N[C@H](C(=O)NCC(N)=O)CSCC(=O)N[C@@H](Cc2cc(F)c(F)c(F)c2)C(=O)N(C)[C@@H](Cc2ccc(O)cc2)C(=O)N1C` [Example 10629] ({CH2CO}-[Phe(3,4,5-F3)][NMeY][NMeNle][dP]DV[NMeF]E[d(cisHyp)]WYLCG-NH2; thioether N-13): 10 to 99.9 nM.
The same measure, in the same setting: next, `CCCC[C@H]1C(=O)N(C)[C@@H](CCCC)C(=O)N[C@@H](CCC(=O)O)C(=O)N[C@H](C(=O)NCC(N)=O)CSCC(=O)N[C@@H](Cc2ccc(O)cc2)C(=O)N(C)[C@@H](C)C(=O)N[C@@H](CC(=O)O)C(=O)N2CCC[C@H]2C(=O)N[C@@H](CN)C(=O)N[C@@H](CCC(N)=O)C(=O)N2C[C@H](O)C[C@H]2C(=O)N[C@@H](Cc2c[nH]c3ccccc23)C(=O)N[C@@H](CCC(=O)O)C(=O)N[C@@H](Cc2c[nH]c3ccccc23)C(=O)N1C` [Example 5245] ({CH2CO}-Y[NMeA]DP[Dap]Q[Hyp]WEW[NMeNle][NMeNle]ECG-NH2; thioether N-14): 1 to 9.9 nM.

Staying with this assay, now noted: PD-L1-His 10 nM, PD-1-Ig 20 nM; read-out: HTRF Human PD-L1/PD-1 Binding Assay IC50.
Regarding `CCCC[C@H]1C(=O)N2C[C@H](O)C[C@@H]2C(=O)N[C@@H](CC(=O)O)C(=O)N[C@@H](C(C)C)C(=O)N(C)[C@@H](Cc2ccccc2)C(=O)N[C@@H](CC(=O)O)C(=O)N2CCOC[C@@H]2C(=O)N[C@@H](Cc2c[nH]c3ccccc23)C(=O)N[C@@H](Cc2ccc(O)cc2)C(=O)N[C@@H](CCO)C(=O)N[C@H](C(=O)NCC(N)=O)CSCC(=O)N[C@@H](Cc2cc(F)c(F)c(F)c2)C(=O)N(C)[C@@H](Cc2ccccc2)C(=O)N1C` [Example 10157] ({CH2CO}-[Phe(3,4,5-F3)][NMeF][NMeNle][d(cisHyp)]DV[NMeF]D[X1]WY[hSer]CG-NH2; thioether N-13), the IC50 stood at 4.1 nM.
On the same count and under the same terms, next, `CCCC[C@H]1C(=O)N(C)[C@@H](CCCC)C(=O)N[C@@H](CCCN)C(=O)N[C@H](C(=O)NCC(N)=O)CSCC(=O)N[C@@H](Cc2ccc(OC)cc2)C(=O)N(C)[C@@H](C)C(=O)N[C@@H](CCN)C(=O)N2CCC[C@H]2C(=O)N[C@@H](Cc2cnc[nH]2)C(=O)N[C@@H](CCCCN)C(=O)N2C[C@H](O)C[C@H]2C(=O)N[C@@H](Cc2c[nH]c3ccccc23)C(=O)N[C@@H](CC(=O)O)C(=O)N[C@@H](Cc2c[nH]c3ccccc23)C(=O)N1C` [Example 7107] ({CH2CO}-Y(Me)[NMeA][Dab]PHK[Hyp]WDW[NMeNle][NMeNle][Orn]CG-NH2; thioether N-14): 304 nM.
